Results as given in ChEMBL document CHEMBL1201862, “PubChem BioAssay data set” (2004).
Activity calls are given as the source filed them.

What was measured:
[1] = target: T1, Corticotropin-releasing factor receptor 2/Corticotropin-releasing factor-binding protein (Homo sapiens, UniProt P24387+Q13324); assay: activators of CRF receptor 2 with binding protein – uHTS hits, confirmation (AID 602473); type: functional; conditions: read-out: EC50_Mean
T1 sequence (Q13324 whole entry): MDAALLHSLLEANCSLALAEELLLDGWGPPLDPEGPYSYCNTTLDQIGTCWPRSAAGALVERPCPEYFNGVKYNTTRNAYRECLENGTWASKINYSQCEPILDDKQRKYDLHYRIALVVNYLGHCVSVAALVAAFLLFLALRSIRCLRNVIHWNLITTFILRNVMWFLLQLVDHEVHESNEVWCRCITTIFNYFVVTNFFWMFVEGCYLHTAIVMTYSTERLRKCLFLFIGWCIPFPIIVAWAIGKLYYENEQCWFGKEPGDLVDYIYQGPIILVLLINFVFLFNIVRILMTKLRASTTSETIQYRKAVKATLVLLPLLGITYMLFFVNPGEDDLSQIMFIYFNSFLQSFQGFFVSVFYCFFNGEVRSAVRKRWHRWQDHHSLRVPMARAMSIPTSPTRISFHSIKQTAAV
T1 sequence (P24387 whole entry): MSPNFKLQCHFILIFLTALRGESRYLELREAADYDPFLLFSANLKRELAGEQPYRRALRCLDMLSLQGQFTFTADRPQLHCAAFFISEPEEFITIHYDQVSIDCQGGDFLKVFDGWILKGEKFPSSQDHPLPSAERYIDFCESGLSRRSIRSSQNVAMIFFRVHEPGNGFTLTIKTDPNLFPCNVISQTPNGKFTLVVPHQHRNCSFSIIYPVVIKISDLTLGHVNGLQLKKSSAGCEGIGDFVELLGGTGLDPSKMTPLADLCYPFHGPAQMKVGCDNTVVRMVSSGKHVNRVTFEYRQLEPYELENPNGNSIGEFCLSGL

[2] = target: T1, Corticotropin-releasing factor receptor 2/Corticotropin-releasing factor-binding protein; assay: Dose Response confirmation of uHTS hits for small molecule antagonists of the CRF-binding protein and CRF-R2 receptor complex.; type: functional; conditions: read-out: IC50_Mean
[3] = target: T2, High affinity choline transporter 1 (Homo sapiens, UniProt Q9GZV3); assay: human choline transporter blockers, potency – cell-based, 5-point CRC, membrane potential dye, dose response (AID 504840); type: functional
T2 sequence (Q9GZV3 whole entry): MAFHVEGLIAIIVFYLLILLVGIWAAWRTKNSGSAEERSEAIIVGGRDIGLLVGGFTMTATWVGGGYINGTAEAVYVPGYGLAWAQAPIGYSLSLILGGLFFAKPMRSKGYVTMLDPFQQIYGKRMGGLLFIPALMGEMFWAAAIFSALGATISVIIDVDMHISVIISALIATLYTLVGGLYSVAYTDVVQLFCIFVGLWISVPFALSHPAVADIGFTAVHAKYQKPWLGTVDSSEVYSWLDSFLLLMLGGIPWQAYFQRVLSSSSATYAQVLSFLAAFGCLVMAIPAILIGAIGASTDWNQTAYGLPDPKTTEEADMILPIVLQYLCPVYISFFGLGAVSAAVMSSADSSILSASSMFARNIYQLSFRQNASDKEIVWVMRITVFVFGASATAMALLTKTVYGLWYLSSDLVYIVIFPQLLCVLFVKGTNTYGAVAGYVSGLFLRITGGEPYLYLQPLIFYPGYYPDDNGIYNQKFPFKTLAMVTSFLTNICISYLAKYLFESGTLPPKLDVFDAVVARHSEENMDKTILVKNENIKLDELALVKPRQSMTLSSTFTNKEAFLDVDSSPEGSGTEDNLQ

[4] = tested on: Streptococcus sp. 'group A'; assay: Streptococcus pyogenes SK(-)GAS viability under kanamycin – luminescence, BacTiterGlo, confirmation, counter-screen for streptokinase expression inhibitor project, dose response (AID 1900); type: functional, organism-based
Streptokinase A = target: T3, Streptokinase A (Streptococcus pyogenes serotype M1, UniProt P10520); assay: viability-normalized secreted streptokinase activity reduction – plasminogen activation absorbance, OD405, dose response (AID 1914); type: functional, Streptococcus pyogenes M1 GAS;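 note: secreted streptokinase activity via plasminogen activation per viability signal from cell pellet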
T3 sequence (P10520 whole entry): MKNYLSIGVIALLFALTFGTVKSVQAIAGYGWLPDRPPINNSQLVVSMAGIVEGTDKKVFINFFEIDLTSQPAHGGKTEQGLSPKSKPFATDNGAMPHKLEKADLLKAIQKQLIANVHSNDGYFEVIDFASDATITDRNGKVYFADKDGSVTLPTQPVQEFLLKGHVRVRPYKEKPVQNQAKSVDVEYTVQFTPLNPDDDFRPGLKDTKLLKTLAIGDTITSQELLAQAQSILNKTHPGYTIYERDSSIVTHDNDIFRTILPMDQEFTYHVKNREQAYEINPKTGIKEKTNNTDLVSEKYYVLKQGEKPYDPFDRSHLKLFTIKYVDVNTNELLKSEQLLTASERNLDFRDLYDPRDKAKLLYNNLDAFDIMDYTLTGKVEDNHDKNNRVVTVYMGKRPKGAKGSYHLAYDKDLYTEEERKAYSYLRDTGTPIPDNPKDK

Streptococcus = assay: GAS UMAA2166 growth inhibition – luminescence, BacTiterGlo, counter-screen for streptokinase expression inhibitor project, dose response (AID 1915); type: functional, organism-based;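 note: potency for reduction of bacterial viability or growth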
Fatty acid synthase [5] = target: T4, Fatty acid synthase (Homo sapiens, UniProt P49327); assay: inhibition of human FAS-TE enzyme activity – biochemical, kinetic fluorescence intensity, dose response (AID 624326); type: functional;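 note: rate of fluorescence rise from hydrolysis of a fluorogenic O-methyl fluorescein ester substrate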
T4 sequence (P49327 whole entry): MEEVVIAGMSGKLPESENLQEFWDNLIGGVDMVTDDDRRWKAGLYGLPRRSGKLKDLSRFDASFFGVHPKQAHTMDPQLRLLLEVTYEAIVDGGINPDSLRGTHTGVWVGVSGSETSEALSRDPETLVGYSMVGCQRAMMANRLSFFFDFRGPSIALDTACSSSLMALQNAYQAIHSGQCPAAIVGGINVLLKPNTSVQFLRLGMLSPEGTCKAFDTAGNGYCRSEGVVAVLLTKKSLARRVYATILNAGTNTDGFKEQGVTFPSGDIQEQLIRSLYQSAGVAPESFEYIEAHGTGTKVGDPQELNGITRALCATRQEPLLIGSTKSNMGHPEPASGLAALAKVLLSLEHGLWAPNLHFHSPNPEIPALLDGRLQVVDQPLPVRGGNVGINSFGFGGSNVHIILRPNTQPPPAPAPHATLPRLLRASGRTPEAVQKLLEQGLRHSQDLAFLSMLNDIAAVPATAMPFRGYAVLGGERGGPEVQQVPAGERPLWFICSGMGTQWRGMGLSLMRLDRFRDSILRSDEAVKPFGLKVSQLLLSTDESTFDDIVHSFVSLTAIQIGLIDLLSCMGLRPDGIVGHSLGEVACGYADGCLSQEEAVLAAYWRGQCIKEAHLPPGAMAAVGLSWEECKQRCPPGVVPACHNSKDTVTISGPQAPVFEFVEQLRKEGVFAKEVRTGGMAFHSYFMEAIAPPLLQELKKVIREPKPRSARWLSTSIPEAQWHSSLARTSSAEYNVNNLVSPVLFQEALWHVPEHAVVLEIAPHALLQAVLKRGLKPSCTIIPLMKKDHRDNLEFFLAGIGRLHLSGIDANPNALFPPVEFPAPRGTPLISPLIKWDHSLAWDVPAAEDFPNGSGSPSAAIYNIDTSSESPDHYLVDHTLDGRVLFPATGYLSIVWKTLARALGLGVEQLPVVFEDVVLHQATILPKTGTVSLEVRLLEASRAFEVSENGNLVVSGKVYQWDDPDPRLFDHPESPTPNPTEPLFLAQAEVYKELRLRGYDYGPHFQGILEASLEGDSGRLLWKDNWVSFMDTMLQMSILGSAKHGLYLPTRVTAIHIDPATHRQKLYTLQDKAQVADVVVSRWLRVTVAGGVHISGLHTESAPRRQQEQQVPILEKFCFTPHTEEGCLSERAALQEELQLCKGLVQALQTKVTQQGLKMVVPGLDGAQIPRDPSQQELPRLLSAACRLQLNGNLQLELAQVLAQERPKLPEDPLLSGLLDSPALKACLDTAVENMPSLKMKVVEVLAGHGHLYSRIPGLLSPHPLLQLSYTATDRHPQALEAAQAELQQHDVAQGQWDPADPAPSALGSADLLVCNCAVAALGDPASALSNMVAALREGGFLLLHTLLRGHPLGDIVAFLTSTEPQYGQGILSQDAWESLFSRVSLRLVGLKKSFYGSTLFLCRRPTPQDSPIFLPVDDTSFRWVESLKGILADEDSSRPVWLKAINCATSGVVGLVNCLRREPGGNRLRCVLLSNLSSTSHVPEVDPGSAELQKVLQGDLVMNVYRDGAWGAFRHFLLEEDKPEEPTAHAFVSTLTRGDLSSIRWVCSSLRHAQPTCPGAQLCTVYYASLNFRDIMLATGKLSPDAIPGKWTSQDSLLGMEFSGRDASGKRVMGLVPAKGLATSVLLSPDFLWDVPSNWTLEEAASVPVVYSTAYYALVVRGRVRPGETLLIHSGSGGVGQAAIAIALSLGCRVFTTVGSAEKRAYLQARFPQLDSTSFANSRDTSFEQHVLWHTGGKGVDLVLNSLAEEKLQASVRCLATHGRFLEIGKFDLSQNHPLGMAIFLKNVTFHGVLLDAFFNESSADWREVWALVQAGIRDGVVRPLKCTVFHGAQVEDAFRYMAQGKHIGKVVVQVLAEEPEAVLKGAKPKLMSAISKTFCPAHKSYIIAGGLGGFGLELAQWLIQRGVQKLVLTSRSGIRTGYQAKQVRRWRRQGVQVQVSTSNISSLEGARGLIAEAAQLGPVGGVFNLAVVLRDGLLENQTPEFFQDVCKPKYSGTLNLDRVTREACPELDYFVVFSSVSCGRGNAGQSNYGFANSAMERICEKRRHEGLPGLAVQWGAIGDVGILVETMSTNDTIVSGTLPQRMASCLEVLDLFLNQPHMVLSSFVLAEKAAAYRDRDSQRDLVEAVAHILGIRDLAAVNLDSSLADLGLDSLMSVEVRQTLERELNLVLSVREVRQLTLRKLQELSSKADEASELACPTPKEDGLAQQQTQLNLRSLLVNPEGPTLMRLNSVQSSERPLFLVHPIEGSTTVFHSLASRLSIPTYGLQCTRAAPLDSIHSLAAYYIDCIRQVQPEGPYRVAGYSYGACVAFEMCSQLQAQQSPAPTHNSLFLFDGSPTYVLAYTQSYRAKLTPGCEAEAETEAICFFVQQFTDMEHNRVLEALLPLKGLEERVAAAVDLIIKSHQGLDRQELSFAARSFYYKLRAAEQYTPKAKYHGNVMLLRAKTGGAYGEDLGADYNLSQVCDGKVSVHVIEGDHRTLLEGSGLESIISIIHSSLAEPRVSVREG

Fatty acid synthase [6] = target: T4, Fatty acid synthase; assay: inhibition of human FAS-TE enzyme activity – biochemical, endpoint fluorescence intensity, uHTS hits, dose response (AID 624327); type: functional;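 note: fluorescence from hydrolysis of an O-methyl fluorescein acyl ester substrate by the enzyme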
Large T antigen = Large T antigen (Simian virus 40, UniProt P03070); type: functional, Betapolyomavirus macacae;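 note: Confirmatory-stage PubChem screen for compounds that inhibit SV40 T antigen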
Chain of Large T antigen (P03070 whole entry): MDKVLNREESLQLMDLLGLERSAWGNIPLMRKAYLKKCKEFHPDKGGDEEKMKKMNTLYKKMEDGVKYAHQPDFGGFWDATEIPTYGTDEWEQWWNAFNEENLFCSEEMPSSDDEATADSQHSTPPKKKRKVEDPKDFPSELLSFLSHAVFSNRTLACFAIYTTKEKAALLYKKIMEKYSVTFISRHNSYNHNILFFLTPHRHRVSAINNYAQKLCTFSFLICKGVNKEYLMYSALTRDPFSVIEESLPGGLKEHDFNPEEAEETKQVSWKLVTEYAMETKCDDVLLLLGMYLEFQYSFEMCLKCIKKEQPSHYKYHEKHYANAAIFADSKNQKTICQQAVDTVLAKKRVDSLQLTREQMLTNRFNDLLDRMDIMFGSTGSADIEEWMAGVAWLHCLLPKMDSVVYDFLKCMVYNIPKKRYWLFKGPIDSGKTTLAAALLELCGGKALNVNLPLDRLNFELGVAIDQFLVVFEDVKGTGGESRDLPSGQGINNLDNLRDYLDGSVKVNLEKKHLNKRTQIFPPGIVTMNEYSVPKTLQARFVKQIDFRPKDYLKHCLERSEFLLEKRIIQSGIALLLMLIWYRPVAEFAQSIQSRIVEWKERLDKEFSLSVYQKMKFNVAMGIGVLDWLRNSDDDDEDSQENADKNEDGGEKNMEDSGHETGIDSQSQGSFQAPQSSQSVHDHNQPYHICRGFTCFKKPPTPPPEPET

[7] = Luminescence Cell-Based Dose Response HTS to Identify Activators of Luciferase Translation or Activity in H4 […] Cells. [Related pubchem assays: 1829 (Project Summary), 1814 (Primary HTS)]; type: functional
H4 = assay: Luminescence Cell-Based Dose Response HTS to Identify Activators of 5'UTR Stem-Loop Driven Prion Protein mRNA Translation in H4 Neuroglioblastoma Cells. [Related pubchem assays: 1829 (Project Summary), 1814 (Primary HTS)]; type: functional; conditions: Homo sapiens
[8] = Luminescence Cell-Based Dose Confirmation HTS to Identify Activators of 5'UTR Stem-Loop Driven Alpha-Synuclein mRNA Translation in H4 Neuroglioblastoma Cells. [Related pubchem assays: 1829 (Project Summary), 1814 (Primary HTS)]; type: functional
Cytochrome P450 3A4 = Cytochrome P450 3A4 (Homo sapiens, UniProt P08684);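 note: CYP3A4 tested as one member of a cytochrome P450 panel screen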
Chain of Cytochrome P450 3A4 (P08684 whole entry): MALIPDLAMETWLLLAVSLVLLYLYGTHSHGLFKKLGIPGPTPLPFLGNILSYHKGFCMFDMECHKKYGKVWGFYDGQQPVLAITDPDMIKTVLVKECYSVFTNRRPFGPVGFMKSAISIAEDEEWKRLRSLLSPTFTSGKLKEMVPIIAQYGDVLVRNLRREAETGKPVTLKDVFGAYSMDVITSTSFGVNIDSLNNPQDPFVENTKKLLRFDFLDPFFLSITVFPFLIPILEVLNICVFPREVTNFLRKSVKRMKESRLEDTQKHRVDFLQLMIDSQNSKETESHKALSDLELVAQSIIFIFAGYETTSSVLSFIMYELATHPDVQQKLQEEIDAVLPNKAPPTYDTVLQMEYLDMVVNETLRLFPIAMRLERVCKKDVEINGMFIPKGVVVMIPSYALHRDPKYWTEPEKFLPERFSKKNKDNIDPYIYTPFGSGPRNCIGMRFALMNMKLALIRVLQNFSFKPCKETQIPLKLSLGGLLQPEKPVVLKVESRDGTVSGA

Cytochrome P450 1A2 = target: T5, Cytochrome P450 1A2 (Homo sapiens, UniProt P05177);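 note: PubChem cytochrome P450 panel assay, CYP1A2 panel member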
T5 sequence (P05177 whole entry): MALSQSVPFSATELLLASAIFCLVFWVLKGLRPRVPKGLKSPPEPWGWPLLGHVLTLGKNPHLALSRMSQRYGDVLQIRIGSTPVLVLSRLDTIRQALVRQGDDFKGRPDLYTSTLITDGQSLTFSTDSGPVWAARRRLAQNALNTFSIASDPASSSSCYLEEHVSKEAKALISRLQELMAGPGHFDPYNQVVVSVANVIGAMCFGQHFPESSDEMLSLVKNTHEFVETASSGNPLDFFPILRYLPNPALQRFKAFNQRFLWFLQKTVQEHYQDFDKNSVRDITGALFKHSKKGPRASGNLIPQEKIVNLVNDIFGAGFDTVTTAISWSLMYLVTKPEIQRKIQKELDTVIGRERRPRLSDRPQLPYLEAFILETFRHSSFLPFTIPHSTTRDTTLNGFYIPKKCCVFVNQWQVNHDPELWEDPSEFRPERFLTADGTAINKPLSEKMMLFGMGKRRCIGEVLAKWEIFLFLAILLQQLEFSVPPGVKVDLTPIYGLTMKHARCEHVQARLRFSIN

Paired box protein Pax-8 = Paired box protein Pax-8 (Homo sapiens, UniProt Q06710); assay: PAX8 transcriptional activity inhibition in RMG-I – RMG-I cells, luciferase, cherry-pick, dose response (AID 687027); type: functional, cell-based;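 note: luciferase reporter driven by Pax8 target thyroperoxidase promoter measured by SteadyGlo luminescence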
Chain of Paired box protein Pax-8 (Q06710 whole entry): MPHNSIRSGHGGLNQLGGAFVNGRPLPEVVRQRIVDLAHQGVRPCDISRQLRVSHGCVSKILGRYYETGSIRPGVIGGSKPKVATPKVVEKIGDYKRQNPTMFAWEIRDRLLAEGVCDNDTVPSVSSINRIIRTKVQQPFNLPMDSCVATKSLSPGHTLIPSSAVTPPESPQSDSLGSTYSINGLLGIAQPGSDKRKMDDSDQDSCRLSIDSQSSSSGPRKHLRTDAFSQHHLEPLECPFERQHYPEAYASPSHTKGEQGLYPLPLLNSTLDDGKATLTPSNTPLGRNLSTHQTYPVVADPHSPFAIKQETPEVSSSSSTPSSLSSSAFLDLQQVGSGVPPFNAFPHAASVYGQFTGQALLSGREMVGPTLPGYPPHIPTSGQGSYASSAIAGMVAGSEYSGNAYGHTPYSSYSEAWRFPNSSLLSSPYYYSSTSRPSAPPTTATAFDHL

## CCCC(=O)NC(C)c1nc2ccccc2[nH]1 (configuration not stated)
[1]
  EC50: > 53 µM (inactive)
[2]
  IC50: > 47.1 µM (inactive)

## O=C(CN1C(=O)NC2(CCCc3ccccc32)C1=O)N1CCc2ccccc2C1 (configuration not stated)
[3]
  IC50: 13.5 µM (active)

## Cc1cc(C)n(CCC(=O)N=Nc2c(O)[nH]c3ccc(Br)cc23)n1
[1]
  EC50: > 53 µM (inactive)
[2]
  IC50: > 47.1 µM (inactive)

## O=C(COc1cccc(Oc2ccccc2)c1)Nc1ccc(SC(F)F)cc1
[4]
  EC50: 14.4 µM (active)
Streptokinase A
  EC50: 17.5 µM (active)
Streptococcus
  EC50: > 150 µM (not active)
Fatty acid synthase [5]
  IC50: 2.43 µM (active)
Fatty acid synthase [6]
  IC50: 4.12 µM (active)

## CCOc1ccc(CCNC(=O)c2cccc(NC3=NC4CS(=O)(=O)CC4S3)c2)cc1OCC (configuration not stated)
[1]
  EC50: > 53 µM (inactive)
[2]
  IC50: > 47.1 µM (inactive)

## COc1cc(OC)cc(C(=O)Nc2nc(CC(=O)NCc3ccccc3OC)cs2)c1
[4]
  EC50: > 150 µM (not active)
Streptokinase A
  EC50: > 150 µM (not active)
Streptococcus
  EC50: > 150 µM (not active)

## O=C(C[n+]1cccc2ccccc21)c1ccc(Br)cc1
[3]
  IC50: 13.2 µM (active)

## C=CCN=C(S)Nc1ccc(N(C)C)cc1
Large T antigen
  IC50: 3.24 µM (active)

## O=C(COc1ccccc1-c1ccccc1)NNC(=O)NC1CCCCC1
[7]
  EC50: > 120 µM (not active)
H4
  EC50: > 120 µM (not active)
[8]
  EC50: > 120 µM (not active)
[3]
  IC50: 15.8 µM (active)

## CSCC[C@H](NC(=O)c1nn(C)c(=O)c2ccccc12)c1nc2ccccc2[nH]1
[4]
  EC50: 1.06 µM (active)
Cytochrome P450 3A4
  AC50: 12.6 µM (inconclusive)
Streptokinase A
  EC50: > 150 µM (not active)
Streptococcus
  EC50: 19.8 µM (active)
Cytochrome P450 1A2
  AC50: 17.8 µM (inconclusive)

## O=C(Nc1cccc([N+](=O)[O-])c1)NC1CCCCCCC1
Fatty acid synthase [5]
  IC50: 15.2 µM (active)
Fatty acid synthase [6]
  IC50: 14.8 µM (active)

## CC1CN(Cc2nc3c(c(=O)[nH]c(=O)n3C)n2CCCc2ccccc2)CC(C)O1 (configuration not stated)
[4]
  EC50: > 150 µM (not active)
Streptokinase A
  EC50: > 150 µM (not active)
Streptococcus
  EC50: > 150 µM (not active)

## COc1cc(N(C)C)c([N+](=O)[O-])cc1C(=O)NC(C)CNc1ccc([N+](=O)[O-])cc1Cl (configuration not stated)
Fatty acid synthase [5]
  IC50: 5.79 µM (active)
Fatty acid synthase [6]
  IC50: 6.26 µM (active)

## CSCC[C@H](NC(=O)c1ccc(Cl)c([N+](=O)[O-])c1)c1nc2ccccc2[nH]1
Fatty acid synthase [5]
  IC50: 6.14 µM (active)
Fatty acid synthase [6]
  IC50: 11.1 µM (active)

## COc1cc(CNc2ccc(N3CCCCC3)cc2)ccc1OCC(=O)NC(C)(C)C
Large T antigen
  IC50: 12.5 µM (active)
[3]
  IC50: 6.55 µM (active)

## O=C1NC(=S)S/C1=C/c1ccc(N2CCOCC2)o1
Large T antigen
  IC50: 18.4 µM (active)

## Cc1cccc2c(CCNC(=O)c3ccc([N+](=O)[O-])cc3)c[nH]c12
[1]
  EC50: > 53 µM (inactive)
[2]
  IC50: > 47.1 µM (inactive)

## CN1CC(=O)N(CC(=O)N2CCC(Cc3ccccc3)CC2)C1=O
[1]
  EC50: > 53 µM (inactive)
[2]
  IC50: > 47.1 µM (inactive)

## COc1ccc(N2CCN(C(=O)c3cc(C)oc3C)CC2)cc1
[4]
  EC50: > 150 µM (not active)
Streptokinase A
  EC50: > 150 µM (not active)
Streptococcus
  EC50: > 150 µM (not active)

## CCOC(=O)c1ccc(NC(=O)CN2C(=O)CSC2=O)cc1
[1]
  EC50: > 53 µM (inactive)
[2]
  IC50: > 47.1 µM (inactive)

## CCn1c(SCC(=O)Nc2ccc(N(C)C)cc2)nnc1C1CC1
Large T antigen
  IC50: 9.49 µM (active)

## CC1CCCCC1NC(=O)Cn1nnc(-c2ccc(Cl)cc2)n1 (configuration not stated)
[3]
  IC50: 6.61 µM (active)

## CC(C)c1ccc(CSc2ccc(S(=O)(=O)N3CCOCC3)cn2)cc1
Fatty acid synthase [5]
  IC50: 7.91 µM (active)
Fatty acid synthase [6]
  IC50: 5.98 µM (active)

## CCOc1cc(N2CCOCC2)c(OCC)cc1NC(=O)Cc1ccccc1
[3]
  IC50: 13.2 µM (active)

## CCc1ccc(C(=O)COC(=O)c2cc([N+](=O)[O-])ccc2N2CCOCC2)cc1
Fatty acid synthase [5]
  IC50: 2.16 µM (active)
Fatty acid synthase [6]
  IC50: 1.75 µM (active)

## CC(C)c1ccc(S(=O)(=O)N2CCC(C(=O)NCC3(N(C)C)CCCCC3)CC2)cc1
[3]
  IC50: 12.6 µM (active)

## CC(=O)OCCOCn1cnn2c(=O)c(Br)c(C)nc12
[3]
  IC50: 13.5 µM (active)

## C[C@@H]1CN([C@@H](C)CO)C(=O)Cc2cc(NC(=O)CCC(F)(F)F)ccc2O[C@H]1CN(C)Cc1ccc(-c2ccccc2)cc1
Paired box protein Pax-8
  AC50: 8.61 µM (active)

## Cc1ccc(S(=O)(=O)N(C)C[C@@H]2Oc3c(NC(=O)c4ccc(-c5nccs5)cc4)cccc3C(=O)N([C@@H](C)CO)C[C@@H]2C)cc1
Paired box protein Pax-8
  AC50: 18.3 µM (active)

## CC(=NNc1cc(C)c2ccccc2n1)c1ccccn1
Paired box protein Pax-8
  AC50: 7.4 µM (active)

## CC(C)C(=O)c1ccc(O)c(O)c1
Large T antigen
  IC50: 30.9 µM (active)

## COc1ccc(S(=O)(=O)Nc2nc3ccccc3nc2NCc2ccc3c(c2)OCO3)cc1
[1]
  EC50: > 53 µM (inactive)
[2]
  IC50: > 47.1 µM (inactive)
